In EP4744648A1, “LIPOPEPTIDE-CONTAINING FAT-DISSOLVING PRODUCT, AND PREPARATION METHOD THEREFOR AND USE THEREOF” (Bloomage Biotechnology Corporation Limited, priority 2023, dated 2024):

What was measured:
[1] = system: Mouse adipocyte cell line 3T3-F442A; assay: In vitro cytotoxicity test: relative growth rate of cells by CCK-8; assay type: cell-based; conditions: 0.5 mg/mL
Female Kunming mice = assay: Animal experiment comparing surfactin-C14 and surfactin-C15: subcutaneous injection in right inguinal region, four administrations; assay type: in vivo
Text: The higher drug concentration indicated the more obvious effect.

[2] = system: transgenic obese (ob/ob) mice; assay: Degradation of gluteal adipose tissue after injection into adipose pads of the left buttock (H-E sections, site observation); assay type: in vivo; conditions: Example 4, 1 %
Procedure: 6-week-old transgenic obese (ob/ob) mice were used as the animal model. Different drugs were injected into the adipose pads of the left buttock. The mice were totally divided into three groups with 7-10 mice per group, as specified below. • 1) Negative control group: injected with 200 µL of sterile normal saline; • 2) 1% sodium deoxycholate group: injected with 200 µL of sterile normal saline solution containing 1% sodium deoxycholate; • 3) 0.1% surfactin HXRZ group: injected with 200 µL of sterile normal saline solution containing 0.1% surfactin HXRZ.
The day of the first administration was defined as Day 1 of the experiment. Additional administrations were performed on Day 3 and Day 5, respectively. The general condition and administration sites of the mice were observed regularly throughout the experiment. On Day 21 of the experiment, the mice were sacrificed and dissected. The adipose tissue of the left buttock was isolated, fixed immediately in adipose tissue fixative, and then embedded in paraffin. The adipose tissue was stained by hematoxylin and eosin staining for pathological examination, followed by observation and analysis under an optical microscope.
Specifically, 6-week-old transgenic obese (ob/ob) mice were used as the animal model, with one mouse per group. 200 µL each of 0.5% and 1% surfactin HXRZ normal saline solutions (test samples) were injected into the adipose pads of the left buttock, respectively. The day of the first administration was defined as Day 1 of the experiment. Additional administrations were performed on Day 3 and Day 5, respectively. The general condition and administration sites of the mice were observed regularly throughout the experiment. On Day 21 of the experiment, the mice were sacrificed and dissected. The adipose tissue of the left buttock of the mice was isolated, fixed immediately in adipose tissue fixative, and then embedded in paraffin. The adipose tissue was stained by hematoxylin and eosin staining for pathological examination, followed by observation and analysis under an optical microscope.

Kunming mice [3] = assay: Efficacy and side effects on degradation of inguinal adipose tissue, subcutaneous injection once every 14 days; assay type: in vivo; conditions: 1 %; for Adipocyte density (n/mm^2): day 42, M±SEM
Procedure: The adipocyte density was then calculated.
Table 6 Local inflammation in mice of each group

[4] = system: Mouse adipocyte cell line 3T3-F442A; assay: In vitro cytotoxicity test: relative growth rate of cells by CCK-8; assay type: cell-based
Procedure: In accordance with GB/T 16886.5 Biological evaluation of medical devices-Part 5: In vitro cytotoxicity tests (GB/T 16886.5-2017/ISO 10993-5:2009, IDT), and the test was performed with reference to the methods specified therein. The detailed experimental procedures are as follows:
Mouse adipocyte cell line 3T3-F442A in the logarithmic growth phase was seeded into a 96-well plate at a density of 1×10^5 cells/mL, with 100 µL per well. The culture medium consisted of a basal culture medium supplemented with 10% fetal bovine serum. The seeded cells were incubated conventionally in a carbon dioxide incubator at 37°C and 5% CO2 for 24 h.
The solution was freshly prepared before use.
After routine incubation for 24 h, the old culture medium was discarded, and then 100 µL of sample solution was added to replace it in the experimental group. An equal volume of serum-free culture medium was added to the normal control group. Each concentration was set up with at least three replicate wells.
After another incubation for 24 h, the relative growth rate of cells was detected by CCK-8. The culture medium was discarded, 100 µL of CCK-8 diluted 10-fold with the serum-free medium was added to each well. The plate was incubated in a cell incubator for another 2 h. The absorbance was determined using a microplate reader at a wavelength of 450 nm. The relative growth rate (RGR) is a ratio of the absorbance of the experimental group to the absorbance of the normal control group.
The experimental procedures in Example 3 were the same as those in Example 2 except that treatment durations were 0.5 h, 4 h and 24 h. The determination results of the relative growth rates of 3T3-F442A cells treated with surfactin HXRZ and sodium deoxycholate for different durations are shown in Table 3. Table 3 Relative growth rate (%)
3T3-F442A mouse adipocytes in the logarithmic growth phase were seeded into a 96-well plate at a density of 1 × 10^5 cells/mL, with 100 µL per well. After incubation for 24 h, the culture medium was replaced with 100 µL of culture medium containing different concentrations of samples. An equal volume of serum-free culture medium was added to the blank control group, and the incubation was continued for another 24 h. The relative growth rate of cells was determined by CCK-8. The blank control was set as 100%, the relative growth rate and half inhibitory concentration of each group were calculated. The method was the same as that in Example 2.

Kunming mice [5] = assay: Preliminary study on degradation of inguinal adipose tissue, subcutaneous injection once every 7 days; assay type: in vivo; conditions: for ulceration at the administration sites: 200 µL s.c. left inguinal, after two administrations, n = 3
Procedure: Administration was performed once every 7 days. […] 7-9.

[6] = Surface tension at serial dilutions (CMC value determination), automatic interfacial tensiometer; assay type: physicochemical
Procedure: A 0.1% surfactin HXRZ solution and a sodium deoxycholate solution were separately prepared using purified water, followed by serial dilution to obtain different gradient concentrations. The surface tensions at different concentrations were determined respectively via a JZ-200A automatic interfacial tensiometer. Table 1 CMC value determination results

[7] = Observation of solubility in water; assay type: physicochemical; conditions: added to water; room temperature
[8] = 10 mg/mL, four administrations, H-E sections

Substance: Sodium deoxycholate
- cell morphology of adipocytes (inverted microscope, FIG. 4) ([1]; 4 h): nearly all cells died
- cell morphology of adipocytes (inverted microscope, FIG. 4) ([1]; 24 h): nearly all cells died
- Incidence of local adverse reactions, Fourth administration (Female Kunming mice; 10 mg/mL, 200 µL s.c.): 83.33%
- Incidence of local adverse reactions, Second administration (Female Kunming mice; 10 mg/mL, 200 µL s.c.): 75.00%
- Incidence of local adverse reactions, Third administration (Female Kunming mice; 10 mg/mL, 200 µL s.c.): 66.67%
- Incidence of local adverse reactions, First administration (Female Kunming mice; 10 mg/mL, 200 µL s.c., percentage of mice with abnormalities at the administration site): 62.50%
- Mean wet adipose tissue weight/body weight percentage (x±SEM, %) (Female Kunming mice; 10 mg/mL, four administrations): 0.57±0.05 %
- Mean wet adipose tissue weight (x±SEM, unit: g) (Female Kunming mice; 10 mg/mL, four administrations once every 14 days, right inguinal): 0.224 ± 0.022 g
- Mean adipocyte area (x±SEM, mm^2) (Female Kunming mice; [8]): 0.003751±0.000614 mm^2
- Mean adipocyte density (x±SEM, n/mm^2) (Female Kunming mice; [8]): 322.3211±55.3047 n/mm^2
- incidence of adverse reactions (Female Kunming mice; over all four administrations, except first administration in the HXRZ-B high-dose group): exceeded 60%
- degradation of adipose tissue at the administration sites (H-E sections, FIG. 5) ([2]; 200 µL in normal saline, left buttock, Days 1, 3, 5, Day 21): induced the degradation of adipose tissue at the administration sites
- mice with obvious induration palpable at the administration sites ([2]; 200 µL, 7-10 mice per group): three
- mice with ulceration at the administration site ([2]; 200 µL, 7-10 mice per group): one
- Adipose tissue weight (Kunming mice [3]; 200 µL s.c. left inguinal, once every 14 days, day 42, n = 9): 0.1889 ± 0.0270 g
- Adipocyte density (n/mm^2) (Kunming mice [3]; 200 µL s.c.): 727.84±56.64 n/mm^2
- Adipocyte density (n/mm^2) (Kunming mice [3]; 200 µL s.c., listed as sodium deoxycholate): 727.84±56.64 n/mm^2
- Fat index (%) (Kunming mice [3]; 200 µL s.c., day 42, treated-side inguinal adipose weight/body weight × 100%): 0.49±0.07 %
- Subcutaneous nodule and induration (Kunming mice [3]; Day 1, number of mice (n = 9)): 0
- Ulceration (Kunming mice [3]; Day 1, number of mice (n = 9)): 0
- Subcutaneous nodule and induration (Kunming mice [3]; Day 7, number of mice (n = 9)): 0
- Ulceration (Kunming mice [3]; Day 7, number of mice (n = 9)): 2
- Subcutaneous nodule and induration (Kunming mice [3]; Day 14, number of mice (n = 9)): 2
- Ulceration (Kunming mice [3]; Day 14, number of mice (n = 9)): 0
- Subcutaneous nodule and induration (Kunming mice [3]; Day 21, number of mice (n = 9)): 8
- Ulceration (Kunming mice [3]; Day 21, number of mice (n = 9)): 0
- Subcutaneous nodule and induration (Kunming mice [3]; Day 28, number of mice (n = 9)): 5
- Ulceration (Kunming mice [3]; Day 28, number of mice (n = 9)): 0
- Subcutaneous nodule and induration (Kunming mice [3]; Day 35, number of mice (n = 9)): 4
- Ulceration (Kunming mice [3]; Day 35, number of mice (n = 9)): 0
- Subcutaneous nodule and induration (Kunming mice [3]; Day 42, number of mice (n = 9)): 4
- Ulceration (Kunming mice [3]; Day 42, number of mice (n = 9)): 0
- ulceration at the administration sites over the administration cycle (Kunming mice [3]; entire administration cycle): ulceration was observed at the administration sites
- treatment time at which adipocytes were completely lysed ([4]; 0.5 mg/mL): 0.5 h
- half maximal inhibitory concentrations IC50 ([4]; 3T3-F442A adipocytes, 24 h, calculated from Table 2 curves): 260.5 µg/mL
- Relative growth rate (%) ([4]; Example 2, 0.125 mg/mL, 24 h, 3T3-F442A): 98.64±1.74%
- Relative growth rate (%) ([4]; Example 2, 0.25 mg/mL, 24 h, 3T3-F442A): 55.58±3.66%
- Relative growth rate (%) ([4]; Example 2, 0.3 mg/mL, 24 h, 3T3-F442A): 23.83±3.45%
- Relative growth rate (%) ([4]; Example 2, 0.4 mg/mL, 24 h, 3T3-F442A): 10.92±0.48%
- Relative growth rate (%) ([4]; Example 2, 0.5 mg/mL, 24 h, 3T3-F442A): 10.7±0.11%
- Relative growth rate (%) ([4]; Example 3, 0.3 mg/mL, 0.5 h): 71.17±4.00%
- Relative growth rate (%) ([4]; Example 3, 0.3 mg/mL, 4 h): 61.46±9.30%
- Relative growth rate (%) ([4]; Example 3, 0.3 mg/mL, 24 h): 10.70±3.45%
- Relative growth rate (%) ([4]; Example 3, 0.4 mg/mL, 0.5 h): 28.78±6.59%
- Relative growth rate (%) ([4]; Example 3, 0.4 mg/mL, 4 h): 23.81±1.24%
- Relative growth rate (%) ([4]; Example 3, 0.4 mg/mL, 24 h): 10.92±0.48%
- Relative growth rate (%) ([4]; Example 3, 0.5 mg/mL, 0.5 h): 12.78±0.67%
- Relative growth rate (%) ([4]; Example 3, 0.5 mg/mL, 4 h): 17.24±0.02%
- Relative growth rate (%) ([4]; Example 3, 0.5 mg/mL, 24 h): 10.69±0.11%
- ulceration at the administration sites (Kunming mice [5]; 1 %): visible ulceration was observed at the administration sites
- healing of ulceration (Kunming mice [5]; 1 %, after a 7-day administration interval): healed completely
- ulceration at the administration sites (Kunming mice [5]; 2 %): ulceration occurred at the administration sites in all mice
- healing of ulcers (Kunming mice [5]; 2 %, within the subsequent 7 days): failed to heal
- Surface tension value ([6]; solution concentration 0.00078125 % in purified water): 68.51 mN/m
- Surface tension value ([6]; solution concentration 0.0015625 % in purified water): 66.57 mN/m
- Surface tension value ([6]; solution concentration 0.003125 % in purified water): 65.06 mN/m
- Surface tension value ([6]; solution concentration 0.00625 % in purified water): 63.17 mN/m
- Surface tension value ([6]; solution concentration 0.0125 % in purified water): 60.50 mN/m
- Surface tension value ([6]; solution concentration 0.025 % in purified water): 57.94 mN/m
- Surface tension value ([6]; solution concentration 0.05 % in purified water): 55.40 mN/m
- Surface tension value ([6]; solution concentration 0.1 % in purified water): 53.47 mN/m
- Surface tension value ([6]; solution concentration 0.1 % in purified water, listed as sodium deoxycholate): 53 mN/m
- solubility in water [7]: poorly soluble
